Laboratory results published in PMC8151276, “An Integrated Approach toward NanoBRET Tracers for Analysis of GPCR Ligand Engagement” (Molecules, 2021).

Key:
[1] = biological target: T1, CCKBR (Homo sapiens, UniProt P32239); assay: NanoBRET screen HiBiT-CCKBR in HEK293; type: binding; settings: CCKBR
T1 construct: purchased Promega (in-house HiBiT-GPCR construct library, NanoBRET)
T1 sequence (P32239 1-447): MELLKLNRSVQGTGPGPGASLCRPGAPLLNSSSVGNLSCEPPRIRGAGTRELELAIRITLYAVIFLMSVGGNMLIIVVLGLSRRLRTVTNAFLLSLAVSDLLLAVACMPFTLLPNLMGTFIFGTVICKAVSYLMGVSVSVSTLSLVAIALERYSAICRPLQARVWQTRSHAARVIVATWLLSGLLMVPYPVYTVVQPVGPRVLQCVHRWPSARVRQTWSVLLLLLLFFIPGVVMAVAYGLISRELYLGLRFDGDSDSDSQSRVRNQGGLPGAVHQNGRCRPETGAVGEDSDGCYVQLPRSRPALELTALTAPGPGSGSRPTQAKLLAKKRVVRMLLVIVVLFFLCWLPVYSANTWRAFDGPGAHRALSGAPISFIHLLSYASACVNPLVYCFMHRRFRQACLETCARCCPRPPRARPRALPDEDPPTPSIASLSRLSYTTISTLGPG
Description: (§1) Each tracer candidate was screened across the entire library of HiBiT-GPCR constructs using NanoBRET as the detection modality. As depicted in Figure 4A, the specificity of interactions was evaluated through decrease in BRET due to competitive displacement of a bound tracer by excess parental compound. Each tracer was analyzed for binding to each HiBiT-GPCR fusion in the absence and in the presence of competing parental compound. Briefly, HEK293 cells were transfected with HiBiT-GPCR constructs diluted into promoterless DNA to reduce expression and maximize translocation to the cell surface. Each tracer candidate was then screened at concentrations of 1 μM and 0.1 μM across cells expressing these fusions. Cells were treated for 1.5 h with tracer either alone or in the presence of 20 μM competing parental compound (i.e., control). BRET was measured upon addition of purified LgBiT and subsequent complementation with HiBiT genetically fused to a GPCR. The specificity of interactions was assessed through a decrease in BRET signal due to competitive displacement of the bound tracer. To further gauge the robustness of these interactions, the fold response over the control (i.e., BRETtracer/BRETcontrol) was calculated. We chose a 1.5-fold response, which translates to ≥7-fold signal over noise as the minimal threshold required to score an interaction as positive. […]. Below we highlight the screening results obtained for our exemplary fluorescent tracers based on Clozapine, Amitriptyline and AZD1283.
(§2) HiBiT-GPCR DNA constructs were diluted in 10 mM Tris pH 8 to a final concentration of 0.01 μg/μL, arrayed in 96-well plates and stored at −20 °C. For transfection, HEK293 cells were suspended in Opti-MEM (without phenol red) supplemented with 2% fetal bovine serum (Seradigm) and 100 units/mL penicillin–streptomycin (Gibco) at a final concentration of 220,000 cells/mL and dispensed into white 96-well plates at 90 μL/well. Subsequent transfections and screens were carried using an Agilent Bravo Automated Liquid Handling Platform. First, the 96-well HiBiT DNA arrays were diluted 25-fold in Opti-MEM (without serum or phenol red) to a final concentration of 0.0004 μg/μL and 20 μL of the diluted DNAs were transferred into new 96-well plates. Next, promoterless carrier DNA (1 μg/μL) was diluted 25-fold (0.04 μg/μL) and then dispensed into the diluted arrays at 20 μL/well. Following brief mixing, Viafect transfection reagent (Promega) diluted 16-fold into Opti-MEM was dispensed into the plates at 40 μL/well. After mixing by pipetting, plates were incubated for 10 min on the pipetting station deck. The DNA-transfection reagent complexes were then added to plates containing cells. To facilitate the screen, 10 μL of DNA-transfection reagent complexes were added in duplicates to the top 4 and bottom 4 rows, resulting in two identical 48-well arrays per plate. Plates with transfected cells were incubated for 18–20 h at 37 °C/5% CO2. A screen of each tracer across the entire library using two different concentrations requires duplicate plates of transfected cells. Depending on the number of tracers being screened, transfections can be scaled up using the same ratios. The next day, for each tracer, four 20× screening solutions in tracer dilution buffer (Promega) were prepared: two duplicates at final concentration of 20 μM and two duplicates at a final concentration of 2 μM. A competing unmodified compound was added to one of each duplicate at a final concentration of 400 μM. The four resulting solutions were diluted 4-fold in Opti-MEM without serum or phenol red to generate 5× solutions (5 µM and 0.5 µM tracer +/− 100 μM competing compound). To screen the library, a BioTek MultiFlo FX liquid dispenser was used to dispense 22.5 µL of tracer solution to the top 4 rows and 22.5 µL tracer + competing compound solution to the 4 bottom rows. Plates were briefly mixed on an orbital shaker and incubated for 1.5 h at room temperature. […]

[2] = biological target: T2, CCR1 (Homo sapiens, UniProt P32246); assay: NanoBRET screen HiBiT-CCR1 in HEK293; type: binding; settings: CCR1
T2 construct: purchased Promega (in-house HiBiT-GPCR construct library, NanoBRET)
T2 sequence (P32246 1-355): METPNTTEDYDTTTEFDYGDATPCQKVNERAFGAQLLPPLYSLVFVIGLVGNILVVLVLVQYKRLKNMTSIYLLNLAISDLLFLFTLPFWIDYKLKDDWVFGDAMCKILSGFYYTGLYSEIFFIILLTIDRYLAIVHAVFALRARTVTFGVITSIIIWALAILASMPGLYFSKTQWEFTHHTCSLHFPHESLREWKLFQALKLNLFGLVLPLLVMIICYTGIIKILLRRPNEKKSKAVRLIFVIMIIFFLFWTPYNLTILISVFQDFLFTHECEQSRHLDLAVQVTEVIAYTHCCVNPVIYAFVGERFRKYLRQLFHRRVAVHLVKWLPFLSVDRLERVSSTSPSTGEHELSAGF
Description: as §1, §2

Compound	NanoBRET Fold Response ([1]; tracer 0.1μM)	NanoBRET Fold Response ([1]; tracer 1μM)	NanoBRET Fold Response ([2]; tracer 0.1μM)	NanoBRET Fold Response ([2]; tracer 1μM)	further results
CN1CCN(C2=Nc3cc(Cl)ccc3Nc3ccc(CNC(=O)CCOCCOCCOCCOCCNC(=O)CCc4ccc5n4[B-](F)(F)[N+]4=C(c6ccc[nH]6)C=CC4=C5)cc32)CC1 [Clozapine-b-2-NB590]	–	–	–	–	NanoBRET Fold Response ([1]; 0.1μM tracer): 0.99; NanoBRET Fold Response ([1]; 1μM tracer): 1.07; NanoBRET Fold Response ([2]; 0.1μM tracer): 1.04; NanoBRET Fold Response ([2]; 1μM tracer): 0.98
CN1CCN(C2=Nc3cc(Cl)ccc3N(CC(=O)NCCOCCOCCOCCOCCNC(=O)CCc3ccc4n3[B-](F)(F)[N+]3=C(c5ccc[nH]5)C=CC3=C4)c3ccccc32)CC1 [Clozapine-c-2-NB590]	–	–	–	–	NanoBRET Fold Response ([1]; 0.1μM tracer): 1.04; NanoBRET Fold Response ([1]; 1μM tracer): 1.01; NanoBRET Fold Response ([2]; 0.1μM tracer): 1.05; NanoBRET Fold Response ([2]; 1μM tracer): 0.98
O=C(CCOCCOCCOCCOCCNC(=O)CCc1ccc2n1[B-](F)(F)[N+]1=C(c3ccc[nH]3)C=CC1=C2)NCCCN1CCN(C2=Nc3ccccc3Oc3ccc(Cl)cc32)CC1 [Loxapine-a-2-NB590]	1.05	0.98	1.00	0.99	–
COc1ccccc1N1CCN(CCCCN2C(=O)c3ccc(CNC(=O)CCOCCOCCOCCOCCNC(=O)CCc4ccc5n4[B-](F)(F)[N+]4=C(c6ccc[nH]6)C=CC4=C5)cc3C2=O)CC1 [NAN-190-2-NB590]	1.00	0.97	1.01	1.04	–
COc1ccccc1N1CCN(CCCCN2C(=O)c3ccc(CNC(=O)CCOCCNC(=O)c4ccc(CNC(=O)CCc5ccc6n5[B-](F)(F)[N+]5=C(c7ccc[nH]7)C=CC5=C6)cc4)cc3C2=O)CC1 [NAN-190-3-NB590]	0.98	0.94	1.04	0.89	–
O=C(CCc1ccc2n1[B-](F)(F)[N+]1=C(c3ccc[nH]3)C=CC1=C2)NCc1ccc(C(=O)NCCOCCC(=O)N[C@@H]2CC[C@@]3(O)[C@H]4Cc5ccc(O)c6c5[C@@]3(CCN4CC3CC3)[C@H]2O6)cc1 [Naltrexone-3-NB590]	0.79	0.93	1.03	0.66	–
Cc1cc2c(s1)Nc1ccccc1N=C2N1CCN(CCCNC(=O)CCOCCOCCOCCOCCNC(=O)CCc2ccc3n2[B-](F)(F)[N+]2=C(c4ccc[nH]4)C=CC2=C3)CC1 [Olanzapine-a-2-NB590]	1.07	0.89	1.02	0.98	–
O=C(CCc1ccc2n1[B-](F)(F)[N+]1=C(c3ccc[nH]3)C=CC1=C2)NCc1ccc(C(=O)NCCOCCOCCNCC(O)COc2cccc3ccccc23)cc1 (stereo not drawn) [Propranolol-3-NB590]	–	–	–	–	NanoBRET Fold Response ([1]; 0.1μM): 1.05; NanoBRET Fold Response ([1]; 1μM): 0.91; NanoBRET Fold Response ([2]; 0.1μM): 1.03; NanoBRET Fold Response ([2]; 1μM): 0.97
O=C(CCc1ccc2n1[B-](F)(F)[N+]1=C(c3ccc[nH]3)C=CC1=C2)NCCOCCOCCNC(=O)OCCOCCN1CCN(C2=Nc3ccccc3Sc3ccccc32)CC1 [Quetiapine-a-2-NB590]	1.05	0.93	0.99	0.99	–
